Measured values taken from patent US6706740B2, “Fungicidal heterocyclic aromatic amides and their compositions, methods of use and preparation” (Dow AgroSciences LLC, priority 1999, dated 2004).
Read-outs that look alike come from different tables or passages of the source.

Assays:
[1] = tested on: Magnaporthe grisea (Pyricularia oryzae—PYRIOR); assay: microbe, parasite or virus in culture; assay type: cell-based; conditions: Pyricularia oryzae, read-out: PYRIOR in vitro Growth Inhibition
[2] = tested on: Rhizoctonia solani (RHIZSO); assay: microbe, parasite or virus in culture; assay type: cell-based; conditions: Rhizoctonia solani, read-out: RHIZSO in vitro Growth Inhibition
[3] = tested on: Mycosphaerella graminicola (Septoria tritici—SEPTTR); assay: In vitro fungal growth inhibition, Mycosphaerella graminicola (SEPTTR); assay type: cell-based; conditions: Zymoseptoria tritici, read-out: SEPTTR in vitro Growth Inhibition
[4] = tested on: Stagonospora nodorum (Leptosphaeria nodorum—LEPTNO); assay: In vitro fungal growth inhibition, Stagonospora nodorum (LEPTNO); assay type: cell-based; conditions: Leptosphaeria, read-out: LEPTNO in vitro Growth Inhibition
Ustilago maydis (USTIMA) = assay: microbe, parasite or virus in culture; assay type: cell-based; conditions: Mycosarcoma maydis, read-out: USTIMA in vitro Growth Inhibition
[5] = tested on: Phytophthora infestans (PHYTIN); assay: microbe, parasite or virus in culture; assay type: cell-based; conditions: Phytophthora infestans, read-out: PHYTIN in vitro Growth Inhibition
[6] = tested on: Phytophthora infestans—PHYTIN; assay: whole plant or invertebrate; assay type: in vivo; conditions: Phytophthora, in Solanum lycopersicum, 24 h, read-out: PHYTIN in vivo 1 Day Protectant
[7] = tested on: Puccinia recondita—PUCCRT; assay: Brown Rust of Wheat, in vivo whole plant, 24 Hour Protectant; conditions: Puccinia, control of fungal infection vs untreated plants, read-out: PUCCRT in vivo 1 Day Protectant
Erysiphe graminis—ERYSGT = assay: Powdery Mildew of Wheat, in vivo whole plant, 24 Hour Protectant; conditions: Erysiphe, control of fungal infection vs untreated plants, read-out: ERYSGT in vivo 1 Day Protectant
Septoria tritici—SEPTTR = assay: Leaf Blotch of Wheat, in vivo whole plant, 24 Hour Protectant; conditions: Zymoseptoria tritici, 24 h, control of fungal infection vs untreated plants, read-out: SEPTTR in vivo 1 Day Protectant
[8] = tested on: Leptosphaeria nodorum—LEPTNO; assay: Glume Blotch of Wheat, in vivo whole plant, 24 Hour Protectant; conditions: Leptosphaeria, control of fungal infection vs untreated plants, read-out: LEPTNO in vivo 1 Day Protectant
[9] = 100 ppm spray, wheat, 24 hour protectant
[10] = wheat plants sprayed at 100 ppm, inoculated after 24 hours

Structure (SMILES) | inhibition at 25 ppm [1] | inhibition at 25 ppm [2] | inhibition at 25 ppm ([3]; 25 ppm in growth medium) | inhibition at 25 ppm ([4]; 25 ppm in growth medium) | inhibition at 25 ppm (Ustilago maydis (USTIMA)) | inhibition at 25 ppm [5] | pest or weed control at 100 ppm [6] | pest or weed control at 100 ppm [7, 9] | pest or weed control at 100 ppm (Erysiphe graminis—ERYSGT; [9]) | pest or weed control at 100 ppm (Septoria tritici—SEPTTR; [9]) | pest or weed control at 100 ppm [8, 9] | inhibition at 25 ppm ([3]; 25 ppm in the growth medium) | inhibition at 25 ppm ([4]; 25 ppm in the growth medium) | pest or weed control at 100 ppm [7, 10] | pest or weed control at 100 ppm (Erysiphe graminis—ERYSGT; [10]) | pest or weed control at 100 ppm (Septoria tritici—SEPTTR; [10]) | pest or weed control at 100 ppm [8, 10]
COc1ccnc(C(=O)Nc2cc(C)c(OC(=O)c3ccc(C(F)(F)F)cc3)c(C)c2)c1O [Compound 457] | < 80% | < 80% | < 80% | > 80% | < 80% | < 80% | < 25% | < 25% | < 25% | 25 to 74% | < 25% |  |  |  |  |  | 
COc1ccnc(C(=O)Nc2ccc(Oc3cc(Oc4ccccc4)ncn3)cc2)c1O [Compound 468] | < 80% | < 80% |  |  | < 80% | < 80% | < 25% |  |  |  |  | < 80% | < 80% | < 25% | < 25% | 25 to 74% | < 25%
COc1ccnc(C(=O)Nc2ccc(Oc3ccc(C(F)(F)F)cc3)nc2)c1O [Compound 472] | > 80% | < 80% |  |  | < 80% | < 80% | < 25% |  |  |  |  | < 80% | < 80% | 25 to 74% | < 25% | 25 to 74% | 25 to 74%
CSc1ccnc(C(=O)NC2CC(C)(C)CC(C)(C)C2)c1O [Compound 477] | < 80% | < 80% |  |  | < 80% | < 80% | < 25% |  |  |  |  | < 80% | < 80% | < 25% | < 25% | 25 to 74% | 25 to 74%
CC1(C)CC(NC(=O)c2nccc(Cl)c2O)CC(C)(C)C1 [Compound 480] | > 80% | < 80% |  |  | < 80% | < 80% | < 25% |  |  |  |  | < 80% | < 80% | < 25% | < 25% | < 25% | 25 to 74%
COc1ccc(O)c(C(=O)NC2COC(=O)[C@H](Cc3ccccc3)[C@@H](OC(=O)C(C)C)[C@H](C)OC2=O)n1 (stereo partly shown) [Compound 481] | < 80% | < 80% |  |  | < 80% | < 80% | < 25% |  |  |  |  | < 80% | < 80% | < 25% | < 25% | 25 to 74% | 25 to 74%
COc1ccc(CNC(=O)c2nc(Br)ccc2O)cc1 [Compound 482] | < 80% | < 80% |  |  | < 80% | < 80% | < 25% |  |  |  |  | < 80% | < 80% | < 25% | < 25% | 25 to 74% | 25 to 74%
O=C(NCc1sccc1Cl)c1nc(Br)ccc1O [Compound 484] | < 80% | < 80% |  |  | < 80% | < 80% | < 25% |  |  |  |  | < 80% | < 80% | < 25% | < 25% | < 25% | < 25%
CC(NC(=O)c1nc(Br)ccc1O)c1ccc(C(F)(F)F)cc1 (stereo not shown) [Compound 488] | > 80% | < 80% |  |  | < 80% | < 80% | < 25% |  |  |  |  | < 80% | < 80% | 25 to 74% | < 25% | 25 to 74% | < 25%
CCCCCc1ccc(C(C)NC(=O)c2nc(Br)ccc2O)cc1 (stereo not shown) [Compound 489] | < 80% | < 80% |  |  | < 80% | < 80% | < 25% |  |  |  |  | < 80% | < 80% | 25 to 74% | < 25% | < 25% | < 25%
CC(NC(=O)c1nc(Br)ccc1O)c1ccc(Oc2ccccc2)cc1 (stereo not shown) [Compound 490] | < 80% | < 80% |  |  | < 80% | < 80% | < 25% |  |  |  |  | < 80% | < 80% | 25 to 74% | < 25% | 25 to 74% | < 25%
O=C(NC(Cc1ccccc1)c1ccccc1)c1nc(Br)ccc1O (stereo not shown) [Compound 491] | < 80% | < 80% |  |  | < 80% | > 80% | < 25% |  |  |  |  | < 80% | < 80% | < 25% | < 25% | < 25% | < 25%
O=C(Nc1ccccc1Oc1cccc(C(F)(F)F)c1)c1nc(Br)ccc1O [Compound 492] | < 80% | < 80% |  |  | < 80% | < 80% | < 25% |  |  |  |  | < 80% | < 80% | < 25% | < 25% | 25 to 74% | < 25%
O=C(Nc1ccccc1Oc1ccc(C(F)(F)F)cc1)c1nc(Br)ccc1O [Compound 493] | < 80% | < 80% |  |  | < 80% | < 80% | < 25% |  |  |  |  | < 80% | < 80% | < 25% | < 25% | 25 to 74% | < 25%
O=C(Nc1cccc(Oc2ccccc2C(F)(F)F)c1)c1nc(Br)ccc1O [Compound 494] | < 80% | < 80% |  |  | < 80% | < 80% | < 25% |  |  |  |  | < 80% | < 80% | < 25% | < 25% | 25 to 74% | < 25%
O=C(Nc1cccc(Oc2cccc(C(F)(F)F)c2)c1)c1nc(Br)ccc1O [Compound 495] | < 80% | < 80% |  |  | < 80% | < 80% | < 25% |  |  |  |  | < 80% | < 80% | 25 to 74% | 25 to 74% | 25 to 74% | < 25%
O=C(Nc1cccc(Oc2ccc(C(F)(F)F)cc2)c1)c1nc(Br)ccc1O [Compound 496] | < 80% | < 80% |  |  | < 80% | < 80% | < 25% |  |  |  |  | < 80% | < 80% | 25 to 74% | < 25% | 25 to 74% | < 25%
